The subject of assay [1] is HeLa cells. The assay can be described thus: Transduction potential of CTP-β-gal following treatment with trypsin (staining). In kind it is cell-based. The settings on record: 50 μg/ml, 20 hr, trypsin before fixation. The method, then:
HeLa cells were cultured for 1 day in DMEM (high glucose) at a density of 2×10^5/ml in 48-well plates. Cells were washed once with 1× PBS, and then incubated further for additional 20 hr in OPTI-MEM containing PTD-β-gal, MTS-β-gal, CTP501-β-gal or CTP514-β-gal, respectively, at a concentration of 50 μg/ml. Thereafter, the cells were treated with trypsin-EDTA (10×) for 3 min at 37° C. to remove the CPP-β-gal attached to the cell surface, and then rinsed twice with 1× PBS, followed by fixing with a fixation solution for 10 min at room temperature. After washing twice with 1× PBS, the cells were stained with a staining solution for 2 hr at 37° C. and photographed under a microscope (FIG. 6b).

The subject of assay [2] is HeLa cells. In words: Subcellular localization of CTP-FITC by confocal microscope without cell fixation. In kind it is cell-based. Particulars: FITC-labeled peptide, 25 μg/ml, 1 hr. An excerpt:
Fixation step is inevitable for examining the subcellular localization of the transduced β-gal in the cells with antibodies. However, according to the previous reports, the fusion protein attached to cell surface is very likely to be introduced into the cell during a cell fixation procedure, which may affect its transduction potential and its subcellular localization. However, FITC-labeled membrane permeation peptides allow its subcellular localization to be observed under a confocal microscope without cell fixation. Monolayered HeLa cells were treated for 1 hr with FITC-labeled CTP, PTD or MTS at a concentration of 25 μg/ml, and washed three times with HBSS, followed by observation under a confocal microscope without cell fixation.

Assay [3] concerns HeLa cells. The assay can be described thus: Transduction of PTD- and CTP-β-galactosidase into HeLa cells (X-gal staining after fixation). In kind it is cell-based. Particulars: for transduction potential / order of transduction potentials into HeLa cells: 100 μg/ml, 1 hr; for transduction potential: fixation; for order of transduction potentials into HeLa cells: β-galactosidase fusion, X-gal staining. The text has this:
Although various other substitutions could be performed, it is essential in this invention that the introduction of a positive charge by arginine and the substitution by an α-helix stabilizing amino acid should be carried out for maintaining the principle function of the PTD peptide. Therefore, as a substitute amino acid, the positively charged amino acid is restricted to arginine, and the negatively charged amino acid is restricted to glutamic acid. β-galactosidase was fused to the CTP candidate peptide, the fusion proteins were isolated and purified (see FIG. 2), and HeLa cells were treated with each of the fusion proteins. This was then followed by an analysis of the transduction potential and a determination of the extent of the cytoplasmic remaining property.
The transduction potential of the PTD and CTP candidates was tested with HeLa cells. Using a 24-well plate (Nunc), 5×10^4 HeLa cells were inoculated into high glucose DMEM (containing 10% FBS) and cultured for 36 hr. The cells were rinsed with PBS and treated with 100 μg/ml of PTD- and CTP-β-galactosidase in an opti-MEM I medium. After 1-hr incubation, cells were fixed for 10 min at room temperature with a fixation solution (2% formaldehyde, 0.2% glutaraldehyde in PBS). Then, the cells were rinsed twice with PBS, and stained for 2 hr with dye (0.1% X-gal, 5 mM potassium ferricyanide, 5 mM potassium ferrocyanide, 2 mM MgCl2 in PBS) to examine their transduction potential (see FIG. 3). The samples showing a low level of staining, even after a 2-hr staining, were incubated overnight, and then stained for the relative transduction potential. The transduction potentials of the PTD and CTP candidates into HeLa cells were seen to be in the following order: PTD5<CTP502<<CTP501=CTP506<CTP507<CTP505<CTP503=CTP504<CTP508=CTP510=MTS<CTP509<<PTD=CTP511<<CTP512.

Assay [4] has as its system HeLa cells. In words: Subcellular localization of CTP-β-gal by confocal scanning microscope. The settings on record: β-galactosidase fusion protein, 100 μg/ml, 1 hr. In kind it is cell-based. The text has this: To select cytoplamic transduction peptides (CTPs) of interest, HeLa cells were transduced with CTP-β-galactosidase, and then examined under the confocal scanning microscope. Before the confocal analysis, cells were stained with mouse anti-β-galactosidase antibody and 2nd antibodies conjugated with FITC (Fluorescence-iso-thio-cyanate) or with PE (phycoerythrin) together with DNA staining reagent (green fluorescence SYTO-16 DNA staining dye, Molecular Probe). First, HeLa cells (5×10^5 cells/ml) were plated onto a 6-well plate containing sterilized cover-slips and cultured overnight at 37° C. CO2 incubator. The cells were washed with PBS (pH 7.4) and 1 ml of an OPTI-MEM I medium was added, followed by treatment with candidate CTP-fused proteins (100 μg/ml). As a positive control, PTD-β-galactosidase fusion protein was employed, and as a negative control, only β-galactosidase protein was used. Following the treatment with candidate CTP-β-galactosidase fusion proteins, cells were incubated for 1 hr at 37° C. incubator. The cells were rinsed three times with PBS and fixed with 2% paraformaldehyde for 20 min at 4° C. HeLa cells fixed were washed twice with washing buffer (PBS containing 0.2% BSA and 0.02% sodium azide). To stain the cells with antibody, cells were pre-treated with 0.5% Triton X-100 (in PBS, Sigma) at 4° C. for 20 min. Cells were washed three times with washing buffer and then stained with mouse anti-β-galactosidase antibody (diluted 1:2,000, Sigma) for 1 hr at 4° C. as a primary antibody and then washed three times with washing buffer. Cells were then incubated with FITC-conjugated goat anti-mouse IgG (diluted 1:2,000, Jackson Laboratory) as a secondary antibody for 20 min at 4° C. Washed 3 times with the same washing buffer, cells were fixed on a slide glass with fluorescence mounting medium (DAKO) and the edge of slide glass was sealed with nail vanish.
Double staining was carried out with SYTO-16 DNA staining dye as follows: First, the cells were incubated with the primary antibodies under the same conditions and rinsed three times. Then, the cells were incubated at 4° C. for 20 min with PE-conjugated goat anti-mouse IgG PE (diluted 1:2,000, Jackson Laboratory). Washed three times with washing buffer, cells were incubated with SYTO-16 DNA staining dye (diluted 1:1,000, DAKO) for 20 min at 4° C. Cells were fixed and sealed on a slide glass and then examined under a confocal laser scanning microscope.
In the present experiment, LEICA TCS NT SP confocal microscope (LEICA Lasertech GmbH, Heidelverg, Germany) was employed, which was equipped with lager generator of argon (Ar) and krypton (Kr), scanning device, and filter capable of detecting FITC (510–550 nm) and PE (600–660) at independent channel. Photographs were taken by PL-APO X100 objective. For single staining, the cells were sectioned into 4-layers and fluorescence and transmission photographs were taken. For double staining, FITC, PE, and transmission photographs were taken using optimal respective filter.

For assay [5] the following is noted: cited from earlier work.
Where [6] appears, read: β-galactosidase fusion protein, HeLa cells.

Entries after “also recorded” stand apart in the source; their conditions may differ.

As to “CTP514: CTP (2R4R5R8R9R), sequence YRRRRRRRRRR”, in the assay with HeLa cells [1], the “β-gal activity transduced into cells” value is reported as “almost equivalent to that of the PTD”. Further, the subcellular localization result in the assay with HeLa cells [2] is “observed only in the cytoplasm, and not in the nucleus”.

For the substance “CTP504: CTP candidate (2G), sequence YGRAARRAARR”, in the assay on HeLa cells [3] (setting [6]), the “transduction potential as percentage of wild type PTD fusion protein” value is 10%, the “transduction potential higher than PTD5” value is 20 fold and the transduction potential result is listed as “excellent transduction potential”. Also, in the assay on HeLa cells [3], the “order of transduction potentials into HeLa cells” value was “CTP503=CTP504<CTP508”. In addition, the “cytoplasmic remaining property / subcellular localization” value in the assay on HeLa cells [4] is “high cytoplasmic remaining property”.

Turning to “CTP508: CTP candidate (4K), sequence YARKARRAARR”, in the assay with HeLa cells [2], the subcellular localization entry was “observed only in the cytoplasm, and not in the nucleus”. In the assay with HeLa cells [3] (setting [6]), the “transduction potential as percentage of wild type PTD fusion protein” value is given as 20% and the transduction potential entry was “excellent transduction potential; also recorded: transduction potential lower than wild type PTD; also recorded: significantly high transduction potential”. Also, in the assay with HeLa cells [3], the “order of transduction potentials into HeLa cells” value is listed as “CTP504<CTP508=CTP510=MTS”. Further, the “cytoplasmic remaining property / subcellular localization” value in the assay with HeLa cells [4] is recorded as “much stronger cytoplasmic remaining property than PTD; also recorded: much higher than the wild type PTD; also recorded: significantly high”.

Take “CTP509: CTP candidate (2K4K), sequence YKRKARRAARR”: the transduction potential entry in the assay on HeLa cells [3] (setting [6]) is given as “transduction potential higher than CTP508; also recorded: transduction potential lower than wild type PTD; also recorded: significantly high transduction potential”. Also, in the assay with HeLa cells [3], the “order of transduction potentials into HeLa cells” value was “MTS<CTP509<<PTD”. The “cytoplasmic remaining property / subcellular localization” value with HeLa cells [4] was “much stronger cytoplasmic remaining property than PTD; also recorded: much higher than the wild type PTD; also recorded: significantly high”.

As to “CTP505: CTP candidate (4E), sequence YAREARRAARR”, in the assay with HeLa cells [3] (setting [6]), the transduction potential entry is given as “excellent transduction potential”. Also, the “order of transduction potentials into HeLa cells” value with HeLa cells [3] is listed as “CTP507<CTP505<CTP503”.

For the substance “CTP513: CTP (2G4R5R8R9R), sequence YGRRRRRRRRR”, the “β-gal activity transduced into cells” value in the assay on HeLa cells [1] is on record as “much more efficient to transduce β-gal into cells than either PTD or MTS”. Further, in the assay on HeLa cells [2], the “order of transduction potential” value was “CTP512>513>>514”; the subcellular localization entry was “observed only in the cytoplasm, and not in the nucleus”.

For the substance “CTP502: CTP candidate (2P), sequence YPRAARRAARR”, the transduction potential entry in the assay with HeLa cells [3] (setting [6]) is on record as “low-potential”. In the assay on HeLa cells [3], the “order of transduction potentials into HeLa cells” value is “PTD5<CTP502<<CTP501”.

Consider “CTP507: CTP candidate (2K), sequence YKRAARRAARR”, for which, in the assay with HeLa cells [3] (setting [6]), the transduction potential entry is on record as “low-potential; also recorded: excellent transduction potential”. Further, the “order of transduction potentials into HeLa cells” value in the assay with HeLa cells [3] was “CTP506<CTP507<CTP505”.

Consider “PTD5: PTD derivative of the Dowdy group; differs from CTP504 only by alanine at position 2, i.e. YARAARRAARR (CTP50, Table 1) [reference compound]”, for which, in assay [5] (peptides, reported by the Dowdy group), the “efficiency of delivering peptides into the cell, higher than PTD (TAT)” value is given as 8 fold. In the assay with HeLa cells [3], the “order of transduction potentials into HeLa cells” value is recorded as “PTD5<CTP502”. In the assay with HeLa cells [4], the “cytoplasmic remaining property / subcellular localization” value is “relatively increased pattern in terms of the extent it remains in the cytoplasm as compared to PTD”.

In the case of “CTP501: CTP candidate (1P), sequence PARAARRAARR”, the transduction potential result with HeLa cells [3] (setting [6]) is “low-potential”. The “order of transduction potentials into HeLa cells” value in the assay on HeLa cells [3] was “CTP502<<CTP501=CTP506”.

For “CTP503: CTP candidate (2R11A), sequence YRRAARRAARA”, the transduction potential entry with HeLa cells [3] (setting [6]) was “excellent transduction potential”. In the assay with HeLa cells [3], the “order of transduction potentials into HeLa cells” value is on record as “CTP505<CTP503=CTP504”.

Regarding “CTP510: CTP candidate (2G4R), sequence YGRRARRAARR”, in the assay on HeLa cells [3], the “order of transduction potentials into HeLa cells” value is on record as “CTP508=CTP510=MTS”.

As to “CTP511: CTP candidate (2G4R8R), sequence YGRRARRRARR”, the “β-gal activity transduced into cells” value in the assay on HeLa cells [1] was “almost equivalent to that of the PTD”. Also, the transduction potential entry with HeLa cells [3] (setting [6]) is “transduction potential similar to the wild type PTD; also recorded: significantly high transduction potential”; with HeLa cells [3] (β-galactosidase fusion protein, HeLa cells, listed as CTP 511) it was “transduction potential identical to PTD”. In the assay on HeLa cells [3], the “order of transduction potentials into HeLa cells” value is reported as “PTD=CTP511<<CTP512”. In addition, the “cytoplasmic remaining property / subcellular localization” value was “significantly high” in the assay on HeLa cells [4] and “excellent cytoplasmic remaining property” with HeLa cells [4] (listed as CTP 511).

For the substance “RRRRRRRRR [Arg polycationic homopolymer]”, the “transduction efficiency greater than Tat PTD” value in assay [5] (Wender et al., 2000) is listed as 20 fold.

For the substance “YGRKKRRQRRR [PTD, protein transduction domain of HIV-1 Tat protein, reference compound]”, the subcellular localization result with HeLa cells [2] is “FITC signal only in the nucleus, but not in the cytoplasm”. Further, in the assay with HeLa cells [3], the “order of transduction potentials into HeLa cells” value is on record as “CTP509<<PTD=CTP511”.

Consider “CTP506: CTP candidate (2E4E), sequence YEREARRAARR”, for which the transduction potential result in the assay with HeLa cells [3] (setting [6]) is on record as “low-potential”. For the same substance, in the assay with HeLa cells [3], the “order of transduction potentials into HeLa cells” value is on record as “CTP501=CTP506<CTP507”.
